Where two headings read alike, the source gives them in different places.
How the values were obtained:
[1] = measurement wavelength vicinity of 525 nm; value in document; cited from earlier work
[2] = Two-photon absorption cross-sectional area by Z scanning method; type: physicochemical; conditions: measurement wavelength 550 nm; chloroform solution 1×10^−3
Protocol: Measurement of a two-photon absorption cross-sectional area of the synthesized compound is carried out by Z scanning method described in Mansoor Sheik-Baha et al., IEEE, Journal of Quantum Electronics, 1990, 26, 760. Z scanning method is a widely used method as the measuring method of a non-linear optical constant. In the vicinity of the focus of converged laser beam, a measuring sample is moved along the beam and the change of the quantity of transmitting light is recorded. Since the power density of incident light changes depending upon the position of a sample, the quantity of transmitting light attenuates in the vicinity of the focus in the case where non-linear absorption is present. A two-photon absorption cross-sectional area is computed by fitting the change of the quantity of transmitting light to the theoretical curve predictable from the intensity of incident light, the size of converging spot of light, the thickness of a sample and the concentration of a sample. As the light sources for the measurement of a two-photon absorption cross-sectional area, a Ti-sapphire pulse laser (pulse duration: 100 fs, repetition: 80 MHz, average output: 1 W, peak power: 100 kW) obtained by combining a […] amplifier and light parametric amplifier is used. […]

[3] = Evaluation of solubility of two-photon absorption compound; type: physicochemical; conditions: coating solvent dichloromethane
Protocol: The solubility of the compounds of the invention D-11, D-41 and D-405 and comparative compound R-2 in dichloromethane and 2-butanone is evaluated.

| SMILES | Two-Photon Absorption Cross-Sectional Area [1] [GM] | Two-Photon Absorption Cross-Sectional Area [2] [GM] | Solubility (in words) [3] |
| --- | --- | --- | --- |
| CCCCCCC(CCCC)Oc1ccc(-c2ccc(-c3ccc(-c4ccc(OC(CCCC)CCCCCC)cc4)cc3)cc2)cc1 (stereo not drawn) [Compound R-1] | 15 |  |  |
| N#Cc1ccc(-c2ccc(-c3ccc(-c4ccc(C(=O)c5ccccc5)cc4)cc3)cc2)cc1 [Compound R-2] |  | 200 | small in solubility |

Source: patent publication US8449794B2, “Non-resonant two-photon absorption recording material and non-resonant two-photon absorption compound” (FUJIFILM Corporation, priority 2010, dated 2013)
